Key:
[1] = tested on: BALB/3T3 (murine embryonic fibroblast); test: In vitro cytotoxicity, sulforhodamine B assay, normal cells; type: cell-based; conditions: BALB/3T3 normal cells, normoxia, 72 h
Experimental: (§1) Determination of the cytotoxic activity of compounds tested was performed separately in the normoxia or hypoxia conditions to reveal their potentially bioreductive properties. The experiment was carried out on three human cancer cell lines: MCF-7 breast, ES-2 ovarian and A549 lung adenocarcinoma as well as normal murine embryonic fibroblast BALB/3T3 cell line. In order to facilitate the preparation of solutions of the tested compounds, their initial solutions for dilution were made by dissolving the compounds in acetone.
(§2) All cell lines were exposed to each compound tested at four different concentrations for 72 h. […] Additionally, all cell lines were exposed to acetone (Avantor Performance Materials, Gliwice, Poland) (the solvent used for tested compounds) at concentrations corresponding to those present in tested compounds’ dilutions.
After 72 h of cell incubation with the compounds tested, the sulforhodamine B (SRB) assay was performed as described by Shekan et al. with minor modifications. The cells were fixed in situ by adding 50 µL per well of cold 50% trichloroacetic acid (Avantor Performance Materials, Gliwice, Poland) and were incubated at 4 °C for one hour. Following that, wells were washed five times with water and air dried. Next, 50 µL of 0.4% solution of sulforhodamine B (Sigma-Aldrich, Steinheim, Germany) in 1% acetic acid (Avantor Performance Materials, Gliwice, Poland) were added to each well and plates were incubated at room temperature for 0.5 h. After incubation time, the unbound dye was removed by washing plates five times with 1% acetic acid, whereas stains bound to cells was solubilized with 10 mM Tris base (Sigma-Aldrich, Steinheim, Germany). The absorbance of each solution was read by the Multiskan RC photometer (Labsystems Diagnostics Oy, Vantaa, Finland) at a 540 nm wavelength. […] IC50 values were calculated for each experiment on the basis of four different concentrations using Cheburator software, as described by Nevozhay. The tested compounds at each concentration were tested in triplicates in a single experiment and each experiment was repeated at least three times independently.

[2] = tested on: ES-2 (ovarian adenocarcinoma); test: In vitro cytotoxicity, sulforhodamine B assay; type: cell-based, human; conditions: 72 h
Experimental: as §1, with “acetone. For this purpose, it was not possible to use more polar aprotic solvents (DMSO, DMF) due to the rapid isomerization of some of the tested complexes under their influence.” for “acetone.”
(§3) All the cell lines were cultured at 37 °C in a humid atmosphere containing 5% CO2. Additionally, in the case of cytotoxicity assay with hypoxic conditions, the cells (MCF-7, ES-2, A549) were maintained at 37 °C in a humid atmosphere containing 5% CO2 and 1% O2 during the entire experiment.
as §2, with “Twenty-four hours before adding the tested compounds, all cell lines were seeded in 96-well plates ([…] AG & Co, Nümbrecht Germany) in an appropriate media with 10^4 cells per well. All” for “All”
(§4) After 72 h of cell incubation with the compounds tested, the sulforhodamine B (SRB) assay was performed as described by Shekan et al. with minor modifications. The cells were fixed in situ by adding 50 µL per well of cold 50% trichloroacetic acid (Avantor Performance Materials, Gliwice, Poland) and were incubated at 4 °C for one hour. Following that, wells were washed five times with water and air dried. Next, 50 µL of 0.4% solution of sulforhodamine B (Sigma-Aldrich, Steinheim, Germany) in 1% acetic acid (Avantor Performance Materials, Gliwice, Poland) were added to each well and plates were incubated at room temperature for 0.5 h. After incubation time, the unbound dye was removed by washing plates five times with 1% acetic acid, whereas stains bound to cells was solubilized with 10 mM Tris base (Sigma-Aldrich, Steinheim, Germany). The absorbance of each solution was read by the Multiskan RC photometer (Labsystems Diagnostics Oy, Vantaa, Finland) at a 540 nm wavelength. Results are presented as mean IC50 (concentration of the compound tested that inhibits cell proliferation by 50%) ± standard deviation. IC50 values were calculated for each experiment on the basis of four different concentrations using Cheburator software, as described by Nevozhay. The tested compounds at each concentration were tested in triplicates in a single experiment and each experiment was repeated at least three times independently.

[3] = tested on: MCF-7 (breast adenocarcinoma); test: In vitro cytotoxicity, sulforhodamine B assay; type: cell-based, human; conditions: 72 h
Experimental: as §1, with “acetone. For this purpose, it was not possible to use more polar aprotic solvents (DMSO, DMF) due to the rapid isomerization of some of the tested complexes under their influence.” for “acetone.”
as §3
as §2, with “Twenty-four hours before adding the tested compounds, all cell lines were seeded in 96-well plates ([…] AG & Co, Nümbrecht Germany) in an appropriate media with 10^4 cells per well. All” for “All”
as §4

[4] = tested on: A549 (lung adenocarcinoma); test: In vitro cytotoxicity, sulforhodamine B assay; type: cell-based, human; conditions: 72 h
Experimental: as §1, with “acetone. For this purpose, it was not possible to use more polar aprotic solvents (DMSO, DMF) due to the rapid isomerization of some of the tested complexes under their influence.” for “acetone.”
as §3
as §2, with “Twenty-four hours before adding the tested compounds, all cell lines were seeded in 96-well plates ([…] AG & Co, Nümbrecht Germany) in an appropriate media with 10^4 cells per well. All” for “All”
as §4

MCF-7 cells = test: Total cellular platinum uptake (ICP OES); type: cell-based, human; conditions: MCF-7, 4 h exposure, 10 µM
Experimental: It is necessary to strongly emphasize that the underlined values have a statistically significant lack of variance homogeneity (Fisher–Snedecor’s F-test, Fα/2) with respect to reference drug variance, so Aspin–Welch’s t-test was applied in these cases. […] For ionic compound 8, platinum uptake value was not determined due to Pt concentrations in the cell lysates being below the instrument detection limit (IDL = 10 μg/kg) specified by the manufacturer for the device used.
Cultured MCF-7 cells were seeded at a density of 4 × 10^5 cells/well of culture medium on a 6-well plate (Corning, NY, USA) to a final volume of 2.5 mL. […] The wells without MCF-7 cells were filled with 1 mL of culture medium-containing compound tested to act as a reference for nonspecific platinum complex adsorption on the surface of the well. After incubation, all wells were washed twice with 2 mL of cold PBS, filled with 400 μL of hot (ca 90 °C) 65% nitric acid, and maintained to stand for 2 h. All wells were finally filled with 1600 μL of water and this solution was collected and analyzed using iCAP 7400 Duo ICP OES instrument (Thermo Fisher Scientific) using the plasma axial view (10 s) at λ = 265.945 nm. The amount of Pt per cell was calculated by subtracting the amount of Pt found in the blank well from the amount of Pt found in the cell-containing wells and normalized to the average number of cells per well. The mean and SD values were calculated on the basis of 4 measurements.

[5] = logP by shake-flask method (n-octanol / 0.9% NaCl, Pt by ICP-OES); type: physicochemical; conditions: octanol/water, n = 4
Experimental: An important factor for the pharmacokinetics and the cellular accumulation of the investigated complexes, their lipophilicity was determined by measuring octanol/water partition coefficients (logP) with the shake-flask method. The logP determination was carried out based on a previously described procedure, modified by us to obtain more accurate and repeatable results.
Weighted amounts of the tested platinum complex were suspended by 10 min sonification in 0.9% NaCl water solution, which was previously saturated with n-octanol, and mixed by shaking for 1 h. A simultaneously similar procedure was performed using 5 mL of n-octanol pre-saturated with 0.9% NaCl. Afterward, both suspensions were mixed together, shaken for an additional 1 h, and centrifuged for 5 min. After phase separation and evaporation in vacuo of 1 mL of sample to dryness, the final concentration of Pt was determined by ICP-OES (λ = 265.945 nm) and the partition coefficients were calculated. For the analysis, all samples were dissolved 1:1000 in 2.5% HCl. Each measurement was repeated four times and the final logP was calculated as the arithmetic mean of the four values.

[6] = design: method as in PMID 18777181; conditions: cited from earlier work

logP ± SD [5]	Structure (SMILES)	IC50 ([1]; Mus musculus) [µM]	IC50 ± SD ([2]; ES-2, hypoxia (1% O2))	IC50 ± SD ([2]; ES-2, normoxia)	IC50 ± SD ([3]; MCF-7, hypoxia (1% O2))	IC50 ± SD ([3]; MCF-7, normoxia)	IC50 ± SD ([4]; A549, hypoxia (1% O2))	IC50 ± SD ([4]; A549, normoxia)	Total Cellular Platinum Uptake in MCF-7 Cells (± SD) (MCF-7 cells)	IC50 [1] [µM]	IC50 ([2]; ES-2, hypoxia (1% O2)) [µM]	IC50 ([2]; ES-2, normoxia) [µM]	IC50 ([3]; MCF-7, hypoxia (1% O2)) [µM]	IC50 ([3]; MCF-7, normoxia) [µM]	IC50 ([4]; A549, hypoxia (1% O2)) [µM]	IC50 ([4]; A549, normoxia) [µM]	half-time of the reaction with GSH [6] [min]
−0.37 ± 0.03	COC(=O)c1c([N+](=O)[O-])c[n+]([Pt@SP3-2]([Cl])([Cl])[n+]2cc([N+](=O)[O-])c(C(=O)OC)n2C)n1C [Compound 6, trans-dichloridobis(methyl 1-methyl-4-nitropyrazole-5-carboxylate)platinum(II)]	–	–	–	–	–	inactive	–	47 ± 17 ng Pt/10^6 Cells	> 100	99.8 ± 37.9	36.3 ± 8.6	86.8 ± 19	23.6 ± 8.6	–	58.2 ± 7.6	–
−0.69 ± 0.04	Cc1c([N+](=O)[O-])cn(C)[n+]1[Pt@SP2-2]([Cl])([Cl])[n+]1c(C)c([N+](=O)[O-])cn1C [Compound 7, cis-dichloridobis(1,3-dimethyl-4-nitropyrazole)platinum(II)]	–	inactive	–	inactive	–	inactive	–	16 ± 7 ng Pt/10^6 Cells	> 100	–	68.9 ± 10	–	58 ± 8.7	–	93 ± 12.9	–
−1.22 ± 0.08	COC(=O)c1c([N+](=O)[O-])cn(C)[n+]1[Pt-2]([Cl])([Cl])[Cl].[K+] [Compound 8, potassium trichlorido(3-carboxymethyl-1-methyl-4-nitropirazole)platinate(II)]	–	inactive	–	inactive	inactive	inactive	inactive	^† below IDL	> 100	–	48.5 ± 25.9	–	–	–	–	–

Continued, compound first:

Structure (SMILES)	logP ± SD [5]	IC50 ([1]; Mus musculus) [µM]	IC50 ± SD ([2]; ES-2, hypoxia (1% O2))	IC50 ± SD ([2]; ES-2, normoxia)	IC50 ± SD ([3]; MCF-7, hypoxia (1% O2))	IC50 ± SD ([3]; MCF-7, normoxia)	IC50 ± SD ([4]; A549, hypoxia (1% O2))	IC50 ± SD ([4]; A549, normoxia)	Total Cellular Platinum Uptake in MCF-7 Cells (± SD) (MCF-7 cells)	IC50 [1] [µM]	IC50 ([2]; ES-2, hypoxia (1% O2)) [µM]	IC50 ([2]; ES-2, normoxia) [µM]	IC50 ([3]; MCF-7, hypoxia (1% O2)) [µM]	IC50 ([3]; MCF-7, normoxia) [µM]	IC50 ([4]; A549, hypoxia (1% O2)) [µM]	IC50 ([4]; A549, normoxia) [µM]	half-time of the reaction with GSH [6] [min]
Cn1cc([N+](=O)[O-])cn1 [1-Methyl-4-nitropyrazole, 1-methyl-4-nitropyrazole, reference compound]	–	> 100	inactive	inactive	inactive	inactive	inactive	inactive	–	–	–	–	–	–	–	–	–
N.N.[Cl][Pt][Cl] [Cisplatin, cisplatin, reference compound]	–	–	–	–	–	–	–	–	74 ± 20 ng Pt/10^6 Cells	8.67 ± 2.6	13.7 ± 5.7	8.6 ± 2.6	14.7 ± 5.8	12.6 ± 2.6	23.9 ± 9.3	9.8 ± 1.2	–
COC(=O)c1c([N+](=O)[O-])c[n+]([Pt@SP2-2]([Cl])([Cl])[n+]2cc([N+](=O)[O-])c(C(=O)OC)n2C)n1C [Compound 5, cis-dichloridobis(methyl 1-methyl-4-nitropyrazole-5-carboxylate)platinum(II)]	−0.58 ± 0.13	–	inactive	–	inactive	–	inactive	inactive	39 ± 3 ng Pt/10^6 Cells	> 100	–	38.1 ± 9.2	–	49.1 ± 30.1	–	–	–
N.N.[Cl][Pt+2][Cl] [transplatin]	–	–	–	–	–	–	–	–	–	–	–	–	–	–	–	–	4
